US9260438B2, “Solid forms of tofacitinib salts” (APOTEX INC., priority 2014, dated 2016)
Counter-ions that a name gives are not always drawn.

Legend:
[1] = Solubility of solid forms in water (visual dissolution); conditions: deionized water added drop-wise with agitation until visual dissolution of the solid; hydrochloride
physchem = conditions: thermodynamic from solid

| SMILES | Solubility [1] | further results |
| --- | --- | --- |
| C[C@@H]1CCN(C(=O)CC#N)C[C@@H]1N(C)c1ncnc2[nH]ccc12 [Tofacitinib hydrochloride (APO-E), tofacitinib hydrochloride] | 2235 mg/mL |  |
| C[C@@H]1CCN(C(=O)CC#N)C[C@@H]1N(C)c1ncnc2[nH]ccc12 [Tofacitinib hydrochloride (APO-G), tofacitinib hydrochloride] | 2000 mg/mL |  |
| C[C@@H]1CCN(C(=O)CC#N)C[C@@H]1N(C)c1ncnc2[nH]ccc12 [Tofacitinib hydrochloride (APO-B), tofacitinib hydrochloride] | 2294 mg/mL |  |
| C[C@@H]1CCN(C(=O)CC#N)C[C@@H]1N(C)c1ncnc2[nH]ccc12 [Tofacitinib hydrochloride (APO-D), tofacitinib hydrochloride] | 2145 mg/mL |  |
| C[C@@H]1CCN(C(=O)CC#N)C[C@@H]1N(C)c1ncnc2[nH]ccc12 [Tofacitinib hydrochloride (APO-C), tofacitinib hydrochloride] | 2235 mg/mL |  |
| C[C@@H]1CCN(C(=O)CC#N)C[C@@H]1N(C)c1ncnc2[nH]ccc12 [Tofacitinib hydrochloride (APO-A), tofacitinib hydrochloride] |  | Solubility (physchem; deionized water): 2500 mg/mL |
| C[C@@H]1CCN(C(=O)CC#N)C[C@@H]1N(C)c1ncnc2[nH]ccc12.O=C(O)CC(O)(CC(=O)O)C(=O)O [Tofacitinib citrate, 3-{(3R,4R)-4-methyl-3-[methyl-(7H-pyrrolo[2,3-d]pyrimidin-4-yl)-amino]-piperidin-1-yl}-3-oxo-propionitrile mono-citrate salt, reference compound] |  | Solubility (physchem; water): ~2 mg/mL |
